From patent publication US5409898A, “Compositions and methods for treating infections caused by organisms sensitive to β-lactam antibiotics” (priority 1994, dated 1995) come the findings set out here.

One test relates to A645AP (pBR322). The experiment in a line: Determination of the minimum inhibitory concentration (MIC), A645AP (pBR322). Type of test: cell-based. As to conditions: Escherichia coli; antibiotic resistant strain A645AP (pBR322). The protocol:
(§1) The MIC represents the lowest concentration of antimicrobial agent at which complete inhibition occurs. MIC's were determined by the microdilution plate dilution method using AMH (Manual of Clinical Microbiology, Fourth Edition, Lennette, E. H. Ed. in Chief, ASM. 1985. pps 972-977). At least three different determinations were performed with each antibiotic for each strain.
(§2) MIC's were determined by the microdilution plate dilution method using AMH (Manual of Clinical Microbiology, Fourth Edition, Lennette, E. H. Ed. in Chief, ASM. 1985. pps 972-977). At least three different determinations were performed with each antibiotic for each strain.

Test [1] relates to E. coli H16. As to the kind of experiment: In vivo protection of neutropenic mice from lethal E. coli H16 infection (magainin 2, C-13 peptide, cefepime, amikacin). As to conditions: neutropenic mice, 2×10^4 E. coli H16 i.p.; two i.m. injections at 1 and 3.5 hr: 1 mg/mouse magainin 2, 0.1 mg/kg cefepime; at least 10 days. The method, then: The ability of magainin and cefepime combinations to protect mice from a lethal infection of E. coli was examined. Mice were made neutropenic by injection of Cytoxan and then challenged with E. coli. Mice were then divided into four different groups: (1) mice that were given no further treatment; (2) were given magainin 2 or C-13 peptide only; (3) were given cefepime only and (4) were given a combination of magainin 2 or C-13 peptide and cefepime. […] When amikacin, an aminoglycoside, was tested in similar experiments, no in vitro bactericidal activity or in vivo protection was found.
Mice were made neutropenic five days prior to bacterial challenge. Neutropenia was induced by subcutaneous injection of 250 mg/kg Cytoxan (cyclophosphamide). The mice were challenged with 2×10^4 E. coli H16. Challenge was by intraperitoneal injection. […] The survival of the mice was monitored for a period of at least 10 days

In test [2] the test system is E. coli H16. As to the kind of experiment: In vivo protection of neutropenic mice from systemic E. coli H16 infection (C-13 peptide analogs). From the text: The ability of C-13 peptide analogs and cefepime combinations to protect mice from a lethal infection of E. coil was examined. Mice were made neutropenic by an injection of cyclophosphamide and then challenged with E. coli. Mice were then divided into four groups: (1) mice that were given PBS; (2) were given C-13 peptide analogs only; (3) were given cefepime only; and (4) were given a combination of C-13 peptide analogs and cefepime.
(§3) Male CrL:CF1 mice were made neutropenic five days prior to bacterial challenge. Neutropenia was induced by subcutaneous injection of 250 mg/kg Cytoxan (cyclophosphamide). The mice were challenged with either 2×10^4 E. coli H16 (Table 4) or 5×10^4 A645AP by intraperitoneal injection. Mice were divided into four treatment groups: (1) PBS; (2) C-13 peptide analog (15 mg/kg); (3) cefepime (0.1 mg/kg); (4) a combination treatment of cefepime and C-13 peptide analog (0.1 mg/kg cefepime and 15 mg/kg C-13 peptide analog) that were combined prior to injection. All injections were made in PBS (0.2 ml) and were administered intramuscularly with each injection in separate legs, one and 3.5 hours after bacterial challenge. The survival of the mice was monitored for ten days and the results analyzed by the Fisher Exact test.

The subject of test [3] is non K1 E. coli strain A645AP. The experiment in a line: In vivo protection of neutropenic mice challenged with E. coli A645AP. As to conditions: neutropenic mice challenged with E. coli A645AP (5.0×10^4 organisms). The method, then: as §3
C-13 peptide analog G was also examined in neutropenic mice challenged with the non K1 E. coli strain A645AP (5.0×10^4 organisms). When mice were examined for survival after bacterial challenge the following results were obtained: in group 1, where only PBS was administered 3 out of 20 mice survived; in group 2, where only G was administered, 0 out of 15 survived; in group 3 where cefepime was administered 3 out of 20 survived; and in group 4, where both G and cefepime were administered 8 out of 15 survived.

In test [4] the test system is E. coli ATCC 25922. As to the kind of experiment: Serum bactericidal assay in 40% pooled normal human serum (magainin 2 with antibiotics). As to conditions: 1/32, 1/16, 1/8 MIC antibiotic; 200 μg/ml magainin 2; 40% pooled normal human serum. In kind it is cell-based, Escherichia coli.
For test [5], the system named is E. coli ATCC 25922. The experiment in a line: Bactericidal assay in GVB++ buffer (magainin 2 / cefepime). Type of test: cell-based, Escherichia coli. As to conditions: cefepime alone (1/4 MIC). The protocol:
FIG. 1 illustrates magainin 2 killing of untreated and cefepime altered E. coli in buffer. […] Cells were diluted as described in Section 6.1.5 and added to tubes containing GVB^++ buffer, with or without cefepime, and varying concentrations of magainin 2 peptide (indicated on the X axis). […] After 180 minutes at 37° C., bacterial survival was determined by measuring the number of colony forming units (cfu) in each tube. Bacterial counts were determined in triplicate. For each magainin concentration: Log Kill=log10 cfu no magainin-log10 cfu containing magainin.
The total reaction mixture was 0.25 ml.

A further test concerns M009. As to the kind of experiment: Determination of the minimum inhibitory concentration (MIC), M009. Type of test: cell-based, Pseudomonas aeruginosa. The following applies: antibiotic resistant strain M009. The method, then: as §1, §2
Setting [6] is: neutropenic mice, 2×10^4 E. coli H16 i.p., peptide 15 mg/kg, cefepime 0.1 mg/kg i.m. at one and 3.5 hours, ten days.

Values after ≈ are worked out from the molar mass of the structure shown.

In the case of `CO/N=C(\C(=O)N[C@@H]1C(=O)N2C(C(=O)[O-])=C(C[N+]3(C)CCCC3)CS[C@H]12)c1csc(N)n1` [cefepime], the results for the MIC in the test with A645AP (pBR322) and against M009 were 1 µg/mL (≈ 2.08 µM) and 64 ug/MI, respectively. Further, the “mice survived (out of total)” value with E. coli H16 [1] was 1 out of 20; in test [3], 3 out of 20. Further, in the test with E. coli H16 [2] (Fisher Exact test), the “protection from systemic E. coli H16 infection” value is on record as “failed to provide a significant level of protection”. The “% Survival” value in the test with E. coli H16 [2] (setting [6]) is 12%. In the test with E. coli H16 [2] (setting [6]), the Number--Survived/Total is recorded as 3/25. For the same compound, the “synergy of antibiotic with magainin 2” value in the test on E. coli ATCC 25922 [4] is on record as “synergistic”. The log10 kill result in the test on E. coli ATCC 25922 [5] is “Less than 0.3 log10”.
